Data reported in US6485955B1, “Quiescent cell dipeptidyl peptidase: a novel cytoplasmic serine protease” (The Trustees of Tufts University, priority 1997, dated 2002).
Read-outs that look alike come from different tables or passages of the source. Peptide text beside a SMILES is read from it. * marks the point of attachment. Cbz = O=C(OCc1ccccc1)*; CH2F = FC*

Legend:
QPP = QPP (Homo sapiens, UniProt Q9UHL4); assay: AlaProAFC cleavage by PBMC cytosolic preparation (QPP peptidase activity); assay type: biochemical; conditions: for QPP inhibition (inhibitory profile): comparison with DPIV profile
[1] = system: peripheral blood mononuclear cells (PBMC); assay: Cell death in overnight cultures of freshly isolated PBMC; conditions: for number of dead cells / PCD induction in resting PBMC cultures: compared to media alone
DPIV = DPIV (Homo sapiens, UniProt P27487); conditions: cited from earlier work
DPIV, sequence (P27487 whole entry): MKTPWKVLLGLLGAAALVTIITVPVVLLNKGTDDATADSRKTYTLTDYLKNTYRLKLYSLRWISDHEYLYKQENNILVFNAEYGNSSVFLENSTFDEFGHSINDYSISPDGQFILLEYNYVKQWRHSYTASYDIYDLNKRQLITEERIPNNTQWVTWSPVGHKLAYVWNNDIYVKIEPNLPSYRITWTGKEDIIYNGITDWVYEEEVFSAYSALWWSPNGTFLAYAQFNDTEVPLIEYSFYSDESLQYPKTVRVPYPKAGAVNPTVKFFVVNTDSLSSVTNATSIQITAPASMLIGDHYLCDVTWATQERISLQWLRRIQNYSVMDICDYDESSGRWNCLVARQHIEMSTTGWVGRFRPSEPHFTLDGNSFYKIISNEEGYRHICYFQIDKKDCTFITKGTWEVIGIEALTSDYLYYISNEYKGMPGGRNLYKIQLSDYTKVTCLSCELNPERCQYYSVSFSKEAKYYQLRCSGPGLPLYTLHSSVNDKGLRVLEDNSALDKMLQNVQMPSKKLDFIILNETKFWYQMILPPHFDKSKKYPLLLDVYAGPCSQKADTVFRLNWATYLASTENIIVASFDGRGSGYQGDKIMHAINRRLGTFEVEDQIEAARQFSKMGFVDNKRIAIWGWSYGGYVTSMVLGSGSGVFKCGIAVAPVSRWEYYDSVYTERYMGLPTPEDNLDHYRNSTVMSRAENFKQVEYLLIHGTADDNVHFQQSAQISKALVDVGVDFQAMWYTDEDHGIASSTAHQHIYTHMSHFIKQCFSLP

[2] = system: serum-starved, G0 phase fibroblasts; assay: Apoptosis of serum-starved G0 fibroblasts transfected with QPP transgene; assay type: cell-based; conditions: compared to non-QPP transfected fibroblasts
Source text: The role of QPP in protecting quiescent (non-cycling) cells from death was confirmed in fibroblasts transfected with a QPP transgene sequence using standard techniques.

[3] = system: phosphatidylserine (PS) on the surface of cells; assay: FITC-annexin V detection of surface phosphatidylserine; assay type: cell-based, human; conditions: cells treated with VbP
activated PBMC = assay: Induced death of activated PBMC (PHA blasts) and long term cultured cells; assay type: cell-based, human
Source text: (§1) Methods. […] Sorted cell populations were >90% pure.

CD11b+ monocytes = assay: VbP-induced death of monocytes; assay type: cell-based, human
CD19+ B cells = assay: VbP-induced death of B cells; assay type: cell-based, human
[4] = system: purified T-cells (CD4+/CD8+); assay: VbP-induced death of purified resting T-cells; assay type: cell-based, human; conditions: for effect on VbP-mediated T-cell death: added with VbP, non-cycling T-cells
Source text: as §1

[5] = PBMC cytosolic preparation, high concentrations

Compound: (Z)-Ala-[CF═C]-Pro-NHO-Bz(4NO2) [L-125]
- QPP inhibition (inhibitory profile) (QPP): did not inhibit QPP

Compound: NC(CCCCNC(=O)OCc1ccc([N+](=O)[O-])cc1)C(=O)N1CCSC1 (stereo not shown) [Lys-thiazolidide, NO2-Z-Lys-thiazolidide]
- QPP inhibition (inhibitory profile) (QPP): most potent inhibitors

Compound: CC(C)[C@@H](N)C(=O)N1CCC[C@H]1B(O)O [d-Val-d-boroPro]
- number of dead cells / PCD induction in resting PBMC cultures [1]: inactive

Compound: CCN1C(=O)C=CC1=O [NEM]
- inhibition of cytosolic AlaProAFC cleaving enzymatic activity (QPP): partially inhibited

Compound: NC(CCCCNC(=O)OCc1ccc([N+](=O)[O-])cc1)C(=O)N1CCCCC1 (stereo not shown) [Lys-piperidide, NO2-Z-Lys-piperidide]
- DPIV inhibition (DPIV): does not inhibit DPIV
- QPP inhibition (inhibitory profile) (QPP): did inhibit QPP at higher concentrations than Lys-thiazolidide

Compound: recombinant QPP: recombinant quiescent cell post-prolyl dipeptidase polypeptide expressed from a transgene in fibroblasts
- apoptosis of quiescent fibroblasts [2]: inhibited apoptosis

Compound: Cc1ccc(S(=O)(=O)N[C@@H](CCCCN)C(=O)CCl)cc1 [TLCK]
- inhibition of cytosolic AlaProAFC cleaving enzymatic activity (QPP): partially inhibited

Compound: CC(C)[C@H](N)C(=O)N1CCC[C@H]1B(O)O [VbP, Val-boroPro]
- amount of PS on the surface of cells (FITC-annexin V) [3]: time-dependent increase
- susceptibility of activated PBMC to induced PCD (activated PBMC): resistant
- susceptibility to VbP-induced PCD after return to non-cycling phase (G0) (activated PBMC; activated PBMC maintained in culture until G0): regain sensitivity
- inhibition of cytosolic AlaProAFC cleaving enzymatic activity (QPP; PBMC cytosolic preparation (110,000 g supernatant)): inhibited
- QPP inhibition (inhibitory profile) (QPP): most potent inhibitors
- susceptibility to VbP-induced death (CD11b+ monocytes): resistant
- time at which dead cells were apparent after addition ([1]; PBMC cultures): 4 h
- time to maximal death ([1]; PBMC cultures): ≤ 24 h
- maximal death ([1]; PBMC cultures, within 24 hours): about 70%
- number of dead cells / PCD induction in resting PBMC cultures [1]: striking increase in the number of dead cells
- susceptibility to VbP-induced death (CD19+ B cells): resistant
- T-cell death in CD26+ versus CD26- resting T-cell subpopulations ([4]; CD26+ and CD26- resting T-cells): to the same degree
- susceptibility to VbP-induced death ([4]; purified T-cells (CD4+/CD8+) vs whole PBMC): greater sensitivity than whole PBMC

Compound: O=S(=O)(F)Cc1ccccc1 [PMSF]
- inhibition of cytosolic AlaProAFC cleaving enzymatic activity (QPP; [5]): partially inhibited

Compound: N=C(N)c1ccccc1 [benzamidine]
- inhibition of cytosolic AlaProAFC cleaving enzymatic activity (QPP; [5]): partially inhibited

Compound: CC(=O)N[C@@H](CSC(=O)[C@]1([C@@H](O)C(C)C)NC(=O)[C@H](C)[C@@H]1O)C(=O)O [lactacystin]
- susceptibility of activated PBMC to induced PCD (activated PBMC): susceptible
- number of dead cells / PCD induction in resting PBMC cultures [1]: does not induce PCD
- effect on VbP-mediated T-cell death [4]: neither the anti-Fas mAb M3 nor lactacystin had any effect

Compound: COC(=O)C[C@H](NC(=O)[C@H](C)NC(=O)[C@@H](NC(=O)OCc1ccccc1)C(C)C)C(=O)CF [Z-VADfmk] (Cbz-Val-Ala-Asp(OMe)-CH2F)
- effect on VbP-mediated T-cell death [4]: blocked

Compound: NC(=O)CI [IAA]
- inhibition of cytosolic AlaProAFC cleaving enzymatic activity (QPP): partially inhibited
